This note sets out measurements from ChEMBL document CHEMBL1127770, “2-(1-Cyclopenten-1-yl)-2-[2-(dimethylamino)ethyl]-5-(E)-benzylidene cyclopentanone hydrochlorides: a new series of moderate cytotoxic agents” (1994).

The test system of the test is Panel (Carcinoma cell lines). Briefly: Cytotoxic activity against human cancer cell lines was determined. It counts as functional.
With `COc1ccc(/C=C2\CCC(CCN(C)C)(C3=CCCC3)C2=O)cc1Br.Cl` (stereo unspecified), growth was halved (GI50) at 4.47 µM, the LC50 was 35.5 µM and the “Log TCI” value is -4.89.

With `COc1ccccc1/C=C1\CCC(CCN(C)C)(C2=CCCC2)C1=O.Cl` (stereo unspecified), the GI50 is 15.8 µM, the LC50 is 70.8 µM and the “Log TCI” value is reported as -4.43.

On to `CN(C)CCC1(C2=CCCC2)CC/C(=C\c2ccccc2Cl)C1=O.Cl` (stereo unspecified), for which the concentration for 50% growth inhibition (GI50) is 11.7 µM, the median lethal concentration (LC50) is 60.3 µM and the “Log TCI” value was -4.56.

As to `CN(C)CCC1(C2=CCCC2)CC/C(=C\c2ccc3c(c2)OCO3)C1=O.Cl` (stereo unspecified), the GI50 is 14.8 µM, the LC50 is 60.3 µM and the “Log TCI” value is given as -4.52.

For the compound `CN(C)CCC1(C2=CCCC2)CC/C(=C\c2ccccc2)C1=O.Cl` (stereo unspecified), the 50% growth inhibitory concentration (GI50) is 16.2 µM and the “Log TCI” value is -4.49.

With `COc1cccc(/C=C2\CCC(CCN(C)C)(C3=CCCC3)C2=O)c1.Cl` (stereo unspecified), the GI50 is 15.5 µM and the “Log TCI” value was -4.52.

Consider `COc1ccc(/C=C2\CCC(CCN(C)C)(C3=CCCC3)C2=O)cc1.Cl` (stereo unspecified), for which halving of growth (GI50) required 17.8 µM and the “Log TCI” value is recorded as -4.42.

For the compound `CN(C)CCC1(C2=CCCC2)CC/C(=C\c2ccc(Cl)cc2)C1=O.Cl` (stereo unspecified), it took 7.08 µM to inhibit growth by half (GI50), the 50% lethal concentration (LC50) is 44.7 µM and the “Log TCI” value is -4.72.

Broadly, the GI50 is the concentration at which growth is held to half of that of the control. A high value points to lower sensitivity of the cells. In general, LC50 refers to the concentration that kills 50% of the test population. A low value points to a more lethal substance.
